Key:
Rattus norvegicus [1] = assay: Hypoglycemic activity in glucose/glycogen loaded Sprague-Dawley rat assessed as reduction of blood glucose level at 88 mg/kg, po measured at 1 hr relative to control; format: functional; parameters: scale not given: the % may be the effect or the level left
Canis familiaris [2] = assay: Toxicity in dog assessed as stopped breathing at 100 mg/kg, im measured after 3 mins; format: organism-based, Canis lupus familiaris; parameters: dose 100 mg/kg, route intramuscular; settings: in vivo, 0.05 h
Canis familiaris [3] = assay: Toxicity in nalorphine-treated dog assessed as stopped breathing at 100 mg/kg, im measured after 3 mins; format: organism-based, Canis lupus familiaris; parameters: dose 100 mg/kg, route intramuscular; settings: in vivo, 0.05 h
Rattus norvegicus [4] = assay: Hypoglycemic activity in Sprague-Dawley rat assessed as reduction of blood glucose level at 88 mg/kg, po by glucagon-impaired glucose disposal test relative to control; format: functional; parameters: scale not given: the % may be the effect or the level left; settings: 88 mg/kg
Rattus norvegicus [5] = assay: Hypoglycemic activity in fasted Sprague-Dawley rat assessed as reduction of blood glucose level at 88 mg/kg, po measured at 1 hr relative to control; format: functional; parameters: scale not given: the % may be the effect or the level left
Rattus norvegicus [6] = assay: Toxicity in Sprague-Dawley rat assessed as induction of morphine physical dependence by measuring occurrence of abstinence signs at 32 times of morphine dose 12.5 mg/kg/24 hrs administered on day 6 post morphine withdrawal; format: organism-based; settings: in vivo
Rattus norvegicus [7] = assay: Hypoglycemic activity in glucose/glycogen loaded Sprague-Dawley rat assessed as reduction of glucose level per 100 mL of blood at 88 mg/kg, po measured at 2 hrs (reference value: 102 +/- 7 mg/100 mL); format: functional
Rattus norvegicus [8] = assay: Toxicity in po dosed Sprague-Dawley rat assessed as catalepsy administered 15 mins prior to testing; format: organism-based; settings: in vivo, 0.25 h
Rattus norvegicus [9] = assay: Hypoglycemic activity in glucose loaded Sprague-Dawley rat assessed as reduction of blood glucose level at 88 mg/kg, po measured at 1 hr relative to control; format: functional; parameters: scale not given: the % may be the effect or the level left
Rattus norvegicus [10] = assay: Hypoglycemic activity in glucose loaded Sprague-Dawley rat assessed as reduction of blood glucose level at 88 mg/kg, po measured at 0.5 hrs relative to control; format: functional; parameters: scale not given: the % may be the effect or the level left
Rattus norvegicus [11] = assay: Hypoglycemic activity in fasted Sprague-Dawley rat assessed as reduction of blood glucose level at 50 mg/kg, po measured at 2 hrs relative to control; format: functional; parameters: scale not given: the % may be the effect or the level left
Canis familiaris [12] = assay: Toxicity in dog assessed as effect on pulmonary ventilation rate at 150 mg/kg, im measured after 4 hrs; format: organism-based, Canis lupus familiaris; parameters: dose 150 mg/kg, route intramuscular; settings: in vivo
Rattus norvegicus [13] = assay: Toxicity in Sprague-Dawley rat assessed as induction of physical dependence by measuring occurrence of abstinence signs administered as infusion at 0.3 log interval doses up to maximum tolerated dose 800 mg/kg/24 hrs, ip for 6 days prior to abrupt withdrawal; format: organism-based; parameters: route intraperitoneal; settings: in vivo
Mus musculus [14] = assay: Toxicity in Swiss-Webster mouse assessed as mortality at 75 mg/kg, sc; format: organism-based; parameters: dose 75 mg/kg, route subcutaneous; settings: in vivo
Rattus norvegicus [15] = assay: Hypoglycemic activity in glucose loaded Sprague-Dawley rat assessed as reduction of glucose level per 100 mL of blood at 88 mg/kg, po measured at 2 hrs (reference value: 99 +/- 2 mg/100 mL); format: functional
Mus musculus [16] = assay: Toxicity in po dosed Swiss-Webster mouse assessed as stimulation of straub tail after 15 to 25 mins; format: organism-based; settings: in vivo
Rattus norvegicus [17] = assay: Hypoglycemic activity in glucose loaded Sprague-Dawley rat assessed as reduction of blood glucose level at 88 mg/kg, po measured at 1.5 hrs relative to control; format: functional; parameters: scale not given: the % may be the effect or the level left
Rattus norvegicus [18] = assay: Hypoglycemic activity in glucose loaded Sprague-Dawley rat assessed as reduction of blood glucose level at 50 mg/kg, po measured at 1.5 hrs relative to control; format: functional; parameters: scale not given: the % may be the effect or the level left
Rattus norvegicus [19] = assay: Hypoglycemic activity in glucose/glycogen loaded Sprague-Dawley rat assessed as reduction of blood glucose level at 88 mg/kg, po measured at 1.5 hrs relative to control; format: functional; parameters: scale not given: the % may be the effect or the level left
Canis familiaris [20] = assay: Toxicity in dog assessed as reduction of pulmonary ventilation rate at 100 mg/kg, im measured within 5 mins; format: organism-based, Canis lupus familiaris; parameters: dose 100 mg/kg, route intramuscular; scale not given: the % may be the effect or the level left; settings: in vivo
Canis familiaris [21] = assay: Toxicity in nalorphine-treated dog assessed as reduction of pulmonary ventilation rate at 100 mg/kg, im measured within 5 mins; format: organism-based, Canis lupus familiaris; parameters: dose 100 mg/kg, route intramuscular; settings: in vivo
Rattus norvegicus [22] = assay: Narcotic analgesic activity in po dosed fasted Sprague-Dawley rat measured at 60 mins by D'Amour-Smith tail-flick test; format: functional; settings: Rattus norvegicus, Sprague-Dawley, Tail, po, 1 h; read-out: ED50
Mus musculus [23] = assay: Toxicity in naloxone hydrochloride-treated Swiss-Webster mouse assessed as stimulation of straub tail at 300 mg/kg, po after 15 to 25 mins; format: organism-based; parameters: dose 300 mg/kg, route oral; settings: in vivo
Rattus norvegicus [24] = assay: Toxicity in morphine-treated Sprague-Dawley rat assessed as catalepsy at 32 mg/kg, po administered 15 mins prior to testing; format: organism-based; parameters: dose 32 mg/kg, route oral; settings: in vivo, 0.25 h
Rattus norvegicus [25] = assay: Hypoglycemic activity in glucose loaded Sprague-Dawley rat assessed as reduction of glucose level per 100 mL of blood at 50 mg/kg, po measured at 0.5 hrs (reference value: 176 +/- 8 mg/100 mL); format: functional
Rattus norvegicus [26] = assay: Hypoglycemic activity in fasted Sprague-Dawley rat assessed as reduction of blood glucose level at 88 mg/kg, po measured at 2 hrs relative to control; format: functional; parameters: scale not given: the % may be the effect or the level left
Canis familiaris [27] = assay: Toxicity in nalorphine-treated dog assessed as reduction of pulmonary ventilation rate at 100 mg/kg, im measured within 1 min; format: organism-based, Canis lupus familiaris; parameters: dose 100 mg/kg, route intramuscular; settings: in vivo
Rattus norvegicus [28] = assay: Hypoglycemic activity in glucose loaded Sprague-Dawley rat assessed as reduction of blood glucose level at 50 mg/kg, po measured at 1 hr relative to control; format: functional; parameters: scale not given: the % may be the effect or the level left
Rattus norvegicus [29] = assay: Hypoglycemic activity in fasted Sprague-Dawley rat assessed as reduction of blood glucose level at 50 mg/kg, po measured at 1 hr relative to control; format: functional; parameters: scale not given: the % may be the effect or the level left
Rattus norvegicus [30] = assay: Narcotic analgesic activity in po dosed fasted Sprague-Dawley rat measured at 15 mins by D'Amour-Smith tail-flick test; format: functional; settings: 0.25 h
[31] = Drug metabolism in glucose loaded Sprague-Dawley rat urine assessed as formation of (7)- (exo,exo)-methyl 2-(thiophen-2-yl)-8-azabicyclo[3.2.1]octane-3-carboxylate hydrochloride at 20 mg, po administered 3 to 6 hrs measured for 24 hrs by TLC/mass spectrographic analysis; format: ADME, organism-based; settings: in vivo
Rattus norvegicus [32] = assay: Hypoglycemic activity in fasted Sprague-Dawley rat assessed as reduction of blood glucose level at 88 mg/kg, po measured at 1.5 hrs relative to control; format: functional; parameters: scale not given: the % may be the effect or the level left
Rattus norvegicus [33] = assay: Hypoglycemic activity in fasted Sprague-Dawley rat assessed as reduction of blood glucose level at 50 mg/kg, po measured at 0.5 hrs relative to control; format: functional; parameters: scale not given: the % may be the effect or the level left
Rattus norvegicus [34] = assay: Hypoglycemic activity in fasted Sprague-Dawley rat assessed as reduction of blood glucose level at 88 mg/kg, po measured at 0.5 hrs relative to control; format: functional; parameters: scale not given: the % may be the effect or the level left
Rattus norvegicus [35] = assay: Hypoglycemic activity in fasted Sprague-Dawley rat assessed as reduction of blood glucose level at 50 mg/kg, po measured at 1.5 hrs relative to control; format: functional; parameters: scale not given: the % may be the effect or the level left
Rattus norvegicus [36] = assay: Hypoglycemic activity in glucose loaded Sprague-Dawley rat assessed as reduction of blood glucose level at 50 mg/kg, po measured at 2 hrs relative to control; format: functional; parameters: scale not given: the % may be the effect or the level left
Mus musculus [37] = assay: Analgesic activity in sc dosed Swiss-Webster mouse assessed as reduction of acetylcholine-induced writhing; format: functional; settings: Mus musculus, Swiss-Webster, sc; read-out: ED50
Canis familiaris [38] = assay: Toxicity in dog assessed as reduction of pulmonary ventilation rate at 100 mg/kg, im measured within 20 mins relative to control; format: organism-based, Canis lupus familiaris; parameters: dose 100 mg/kg, route intramuscular; scale not given: the % may be the effect or the level left; settings: in vivo
Canis familiaris [39] = assay: Toxicity in dog assessed as respiratory depression at 150 mg/kg, im; format: organism-based, Canis lupus familiaris; parameters: dose 150 mg/kg, route intramuscular; settings: in vivo
Rattus norvegicus [40] = assay: Toxicity in Sprague-Dawley rat assessed as catalepsy at 32 mg/kg, po administered 15 mins prior to testing in presence of naloxone hydrochloride; format: organism-based; parameters: dose 32 mg/kg, route oral; settings: in vivo, 0.25 h
Rattus norvegicus [41] = assay: Narcotic analgesic activity in sc dosed fed Sprague-Dawley rat measured at 30 mins by D'Amour-Smith tail-flick test; format: functional
Rattus norvegicus [42] = assay: Toxicity in Sprague-Dawley rat assessed as severe convulsion at 240 mg/kg, sc; format: organism-based; parameters: dose 240 mg/kg, route subcutaneous; settings: in vivo
Rattus norvegicus [43] = assay: Toxicity in Sprague-Dawley rat assessed as catalepsy at 32 mg/kg, po administered 15 mins prior to testing; format: organism-based; parameters: dose 32 mg/kg, route oral; settings: in vivo, 0.25 h
Rattus norvegicus [44] = assay: Toxicity in Sprague-Dawley rat assessed as induction of physical dependence by measuring occurrence of abstinence signs at 100 mg/kg/24 hrs, ip administered as 2 days of infusion prior to naloxone-precipitated withdrawal; format: organism-based; parameters: route intraperitoneal; settings: in vivo
Mus musculus [45] = assay: Analgesic activity in po dosed Swiss-Webster mouse assessed as reduction of acetylcholine-induced writhing; format: functional
Rattus norvegicus [46] = assay: Hypoglycemic activity in glucose/glycogen loaded Sprague-Dawley rat assessed as reduction of blood glucose level at 88 mg/kg, po measured at 0.5 hrs relative to control; format: functional; parameters: scale not given: the % may be the effect or the level left

Structure (SMILES): COC(=O)[C@H]1C[C@H]2CC[C@H]([C@H]1c1cccs1)N2C.Cl (racemic)
- Activity (Rattus norvegicus [1]): 38%
- Activity (Canis familiaris [2]): Non-toxic
- Activity (Canis familiaris [3]): Non-toxic
- Activity (Rattus norvegicus [4]): 63%
- Activity (Rattus norvegicus [5]): 38%
- Activity (Rattus norvegicus [6]): Non-toxic
- Activity (Rattus norvegicus [7]): 104 mg
- ED50 (Rattus norvegicus [8]): 18.6 mg/kg
- Activity (Rattus norvegicus [9]): 55%
- Activity (Rattus norvegicus [10]): 55%
- Activity (Rattus norvegicus [11]): 37%
- Activity (Canis familiaris [12]): Non-toxic
- Activity (Rattus norvegicus [13]): Non-toxic
- Activity (Mus musculus [14]): Non-toxic
- Activity (Rattus norvegicus [15]): 100 mg
- ED50 (Mus musculus [16]): 138 mg/kg
- Activity (Rattus norvegicus [17]): 32%
- Activity (Rattus norvegicus [18]): 53%
- Activity (Rattus norvegicus [19]): 22%
- Activity (Canis familiaris [20]): 65%
- Activity (Canis familiaris [21]): Non-toxic
- ED50 (Rattus norvegicus [22]): 83 mg/kg
- Activity (Mus musculus [23]): Non-toxic
- Activity (Rattus norvegicus [24]): 20%
- Activity (Rattus norvegicus [25]): 172 mg
- Activity (Rattus norvegicus [26]): 24%
- Activity (Canis familiaris [27]): Non-toxic
- Activity (Rattus norvegicus [28]): 40%
- Activity (Rattus norvegicus [29]): 40%
- ED50 (Rattus norvegicus [30]): 29 mg/kg
- Drug metabolism [31]: metabolite_detected
- Activity (Rattus norvegicus [32]): 27%
- Activity (Rattus norvegicus [33]): 34%
- Activity (Rattus norvegicus [34]): 45%
- Activity (Rattus norvegicus [35]): 43%
- Activity (Rattus norvegicus [36]): 50%
- ED50 (Mus musculus [37]): 12 mg/kg
- Activity (Canis familiaris [38]): 40%
- Activity (Canis familiaris [39]): Non-toxic
- Activity (Rattus norvegicus [40]): Non-toxic
- ED50 (Rattus norvegicus [41]): 100 mg/kg
- Activity (Rattus norvegicus [42]): Toxic
- Activity (Rattus norvegicus [43]): 65%
- Activity (Rattus norvegicus [44]): Non-toxic
- ED50 (Mus musculus [45]): 35 mg/kg
- Activity (Rattus norvegicus [46]): 62%

Source: ChEMBL document CHEMBL3272053, “(exo, exo)-2-Aryltropane-3-carboxylic esters, hypoglycemic agents with accompanying analgesic activity” (J Med Chem, 1978)
